According to US20220023303A1 (DSM IP Assets B.V., priority 2018, published 2022):

Columns and labels:
Format in all cases: in vivo, humans
U.S. adults [1] = assay: NHANES 2005-2010 observational analysis: linear regression of self-reported bowel motion frequency on riboflavin intake
Description: Data were obtained from NHANES, a representative survey that measures the health and nutritional status of the U.S. non-institutionalized population. Research protocols were reviewed and approved by the National Center for Health Statistics Research Ethics Review Board (protocol #2005-2006). Ethical review of the protocols used in NHANES protocols is conducted annually, with ongoing changes submitted through an amendment process. All participants gave written consent before participation. Information that could potentially identify participants is removed before data is made publicly available.
For this analysis, data from adults aged 20 years and over in the survey years 2005-2010 were selected. Participants were selected using a complex, multi-stage probability sampling design to produce a representative sample. Demographic information (gender, age, ethnicity, education, poverty-income ratio) was provided by self-report during an interview conducted by a trained interviewer in the participant's home. Questions relating to Bowel Health were administered to adults aged 20 years and older in the mobile examination center by means of a computer-assisted personal interviewing system. Dietary assessment was conducted by means of two 24-hour dietary recalls, the first conducted in-person at the mobile examination center, and the second conducted by telephone 3 to 10 days after the dietary interview but not on the same day of the week. Pregnancy status in women aged 20 to 44 years was determined by self-report; negative responses were confirmed with a urinary pregnancy test. […] For the survey cycles 2007-2010, the total supplemental intake based on the 30 days questionnaire was also used, based on the totals provided in the dataset. Subjects who self-reported inflammatory bowel disease were excluded.
(§1) The Bowel Health questionnaire in survey cycles 2005-2006 and 2007-2008 consisted of six questions: four relate to the assessment of the Fecal Incontinence Severity Index (Rockwood, et al 1999 Dis Colon Rectum 42, 1525-1532) one question requests participants' self-reported weekly bowel motion frequency, and one question was about normal stool type on the Bristol Stool Scale (Lewis et al 1997 Scand J Gastroenterol 32: 920-924). A Fecal Incontinence Intensity Score (FISI) was calculated and binned into four categories using the RANK procedure to obtain approximately equal categories. In the 2009-2010 survey cycle, questions about bowel evacuation urgency, constipation and diarrhea incidence over the previous year, and laxative use over the past 30 days, were added.
Statistical analyses were performed using SAS version 9.3 (SAS Institute Inc., Cary, N.C., USA). Statistical significance was set at 0.05.
Gender, ethnicity, education, age (continuous), Poverty-Income Ratio (PIR, continuous) were included in the socio-demographic chunk, and vigorous physical activity over the past 30 days (Y/N), dietary supplement use (Y/N), fiber and moisture intake (continuous), self-report of thyroid problems (Y/N) and use of prescription medication (1 or less vs 2 or more) were included in the diet and health chunk.
The final linear regression using significant predictors was performed using […] to generate the correct variance estimation that takes the complex survey design into account.

U.S. adults [2] = assay: NHANES: self-reported common stool type (Bristol Stool Scale) by quartiles of riboflavin intake; conditions: as riboflavin intake increases (quartiles), FIG. 1
Description: (§2) For this analysis, data from adults aged 20 years and over in the survey years 2005-2010 were selected. Participants were selected using a complex, multi-stage probability sampling design to produce a representative sample. Demographic information (gender, age, ethnicity, education, poverty-income ratio) was provided by self-report during an interview conducted by a trained interviewer in the participant's home. Questions relating to Bowel Health were administered to adults aged 20 years and older in the mobile examination center by means of a computer-assisted personal interviewing system. […] Pregnancy status in women aged 20 to 44 years was determined by self-report; negative responses were confirmed with a urinary pregnancy test. […]
as §1, with “In the 2009-2010 survey cycle, questions about bowel evacuation urgency, constipation and diarrhea incidence over the previous year, and laxative use over the past 30 days, were added.” left out

U.S. adults [3] = assay: NHANES: normalcy of bowel motion frequency (3-21 bowel motions per week) by riboflavin intake quartiles; conditions: as riboflavin intake increases, food and total riboflavin, FIG. 2
Description: as §2
as §1, with “In the 2009-2010 survey cycle, questions about bowel evacuation urgency, constipation and diarrhea incidence over the previous year, and laxative use over the past 30 days, were added.” left out

U.S. adults [4] = assay: NHANES: self-reported urgency to empty the bowels by total riboflavin intake; conditions: highest two quartiles of riboflavin intake, FIG. 4
Description: as §2
as §1, with “In the 2009-2010 survey cycle, questions about bowel evacuation urgency, constipation and diarrhea incidence over the previous year, and laxative use over the past 30 days, were added.” left out

[5] = Adjusted model (demographics): gender, age, education, Poverty-Income Ratio, ethnicity
[6] = Adjusted model (diet/health): prescription medications, thyroid problem, fiber and moisture intake
[7] = Adjusted model (full): all variables

Cc1cc2nc3c(=O)[nH]c(=O)nc-3n(C[C@H](O)[C@H](O)[C@H](O)CO)c2cc1C [riboflavin]
Beta-coefficient, bowel motion frequency, DS riboflavin intake (U.S. adults [1]; [5]): 0.0108 | Beta-coefficient, bowel motion frequency, Food riboflavin intake (U.S. adults [1]; [5]): 0.253 | Beta-coefficient, bowel motion frequency, Total riboflavin intake (U.S. adults [1]; [5]): 0.0130 | Beta-coefficient, bowel motion frequency, DS riboflavin intake (U.S. adults [1]; [6]): 0.00807 | Beta-coefficient, bowel motion frequency, Food riboflavin intake (U.S. adults [1]; [6]): 0.0465 | Beta-coefficient, bowel motion frequency, Total riboflavin intake (U.S. adults [1]; [6]): 0.00684 | Beta-coefficient, bowel motion frequency, DS riboflavin intake (U.S. adults [1]; [7]): 0.00895 | Beta-coefficient, bowel motion frequency, Food riboflavin intake (U.S. adults [1]; [7]): 0.0191 | Beta-coefficient, bowel motion frequency, Total riboflavin intake (U.S. adults [1]; [7]): 0.00974 | Beta-coefficient, bowel motion frequency, Food riboflavin intake (U.S. adults [1]; Crude model): 0.355 | Beta-coefficient, bowel motion frequency, Total riboflavin intake (U.S. adults [1]; Crude model): 0.0113 | Beta-coefficient, bowel motion frequency, DS riboflavin intake (U.S. adults [1]; Crude model, dietary supplements): 0.0101 | Riboflavin intake at which effect on bowel health parameters was seen (U.S. adults [1]; above the median intake): > 2.1 mg/day | Relationship between food riboflavin intake and bowel motion frequency (U.S. adults [1]; after adjusting for socio-demographic, diet and lifestyle co-factors): not significant | Relationship between riboflavin intake and bowel motion frequency (U.S. adults [1]; crude model, intakes from food, dietary supplements and in total): significant, positive relationship | Relationship between total riboflavin intake and bowel motion frequency, stratified by fiber intake (U.S. adults [1]; dietary fiber intake low, less than the median): no significant relationship | Change in bowel motion frequency with riboflavin (U.S. adults [1]; fibre intakes in the upper three quartiles (above 9 g/day)): Increases | Relationship between riboflavin intake from dietary supplements and in total, and bowel motion frequency (U.S. adults [1]; fully adjusted model): significant, positive relationship | Riboflavin intake at which effect on bowel health parameters was especially seen (U.S. adults [1]; highest quartile of riboflavin intake): > 3.1 mg/day | Relationship between total riboflavin intake and bowel motion frequency, stratified by fiber intake (U.S. adults [1]; top two quartiles of dietary fiber intake): only significant | Change in stool type 4 (normal defecation) (U.S. adults [2]): increase | Change in stool types 2 (slow transit time) and 5 (soft-fluid stool) (U.S. adults [2]): reduction | Proportion of the population with normal bowel motion patterns (U.S. adults [3]): increases | Number of respondents reporting bowel motion urgency occurs "rarely" (U.S. adults [4]): significant increase
